This passage reports logP, solubility and log10 OH rate constant (cm³/molecule/s) results from the OPERA property sets (Mansouri et al. 2018).

Converted amounts (≈) assume the structure as drawn.

Conditions in the first data set: not given
By logP is commonly meant a log measure of how a compound divides between an organic and an aqueous phase. Read a high logP as higher lipophilicity. Compound `CCCC(O)CC` (stereo unspecified) showed a logP of 1.65.
Same read-out and setting: next, `CC(=O)Nc1ncc2ncn(COCCOC(C)=O)c2n1`: -1.05; `CSc1nc(C(Cl)(Cl)Cl)nc(C(Cl)(Cl)Cl)n1`: 4.42; `COc1ccc(C(=O)CS(=O)(=O)c2ccc(C)cc2)cc1`: 2.47.
Still for that read-out and setting: next, `O=c1[nH][nH]c(=O)c2ccccc12`: 0.11; `c1ccc2nc3c4ccccc4c4ccccc4c3cc2c1`: 5.66.
For `NS(=O)(=O)c1nc2ccc(OCc3ccccc3)cc2s1`, the logP worked out at 3.18.
What is called solubility is the dissolved amount per volume that the medium holds. On to `Clc1cccc2c(Cl)cccc12`, for which the logP is 4.67 and the solubility stood at 0.00192 mM (≈ 0.379 µg/mL).
As to `ClC1=CC2(Cl)C3CC(Cl)C(Cl)C3C1(Cl)C2(Cl)Cl` (stereo unspecified), the logP was determined as 5.56.
Same read-out and setting: next, `c1ccc2cc3c(cc2c1)-c1cccc2cccc-3c12`: 6.11; `CS/C(C)=N/O`: 1.12.
On the same count and under the same terms, next, `CCN1CCCC1CNC(=O)c1c(OC)ccc(Br)c1O` (stereo unspecified): 2.
The same measure, in the same setting: for `ClC=C1C2CC(C(Cl)C2(Cl)Cl)C1(CCl)CCl` (stereo unspecified) the value was 5.2.
`CCCCCCCCCC1(CC)C(=O)NC(=O)NC1=O` displayed a logP of 4.
For `C=CCOc1ccccc1OCC(CNC(C)C)OC(=O)CCCC` (stereo unspecified), the logP was 4.
For the compound `Cc1cccc(OCCN(C)C)c1`, the logP stood at 2.05.
`c1ccc(N=Nc2ccccc2)cc1` returned a solubility of 0.0351 mM (≈ 6.4 µg/mL). This lies in the double-digit micromolar range.
For `Brc1ccccc1-c1ccccc1`, the logP amounted to 4.59.
In turn, `NS(=O)(=O)c1nn2c(=Nc3ccc(O)cc3)snc2s1` gave a logP of 1.89.
The same measure, in the same setting: for `COc1ccc2[nH]c3c4ccc(Cl)cc4ncc3c2c1` the value was 4.49.
`CC(C)(C#N)Nc1nc(Cl)nc(NC2CC2)n1` returned a logP of 1.99.
Still for that read-out and setting: for `COCC(C)OC(C)=O` (stereo unspecified) the value was 0.56; for `CCCCc1c(C)nc(NCC)nc1O`, 2.22; for `CCCNC(=O)CCC(NS(=O)(=O)c1ccc(C)cc1)C(=O)O` (stereo unspecified), 0.02.
On the same count and under the same terms, next, `CCCN(CCC)C1COc2c(O)cccc2C1` (stereo unspecified): 3.3; `c1ccc2c(c1)ccc1nc3ccc4ccccc4c3cc12`: 5.63.
The same measure, in the same setting: for `CC(C)OC(C)C` the value was 1.52; for `CC(C)OC(C)(C)C`, 2.14.
The compound `O=C(O)/C=C/C(=O)c1cccnc1` showed a logP of 0.26.
The same measure, in the same setting: for `ClC1=C(Cl)C2(Cl)C(Cl)=C(Cl)C3CC1C(Cl)C32` (stereo unspecified) the value was 5.66; for `C[Si]1(C)O[Si](C)(C)O[Si](C)(C)O[Si](C)(C)O[Si](C)(C)O1`, 8.03; for `OCc1cc(Cl)cc(Cl)c1`, 2.9.
The same measure, in the same setting: for `Fc1ccc(Cn2cncn2)cc1` the value was 1.1; for `COP(=S)(OC)Oc1ccc(C#N)cc1`, 2.71; for `Brc1cc(Br)c(Br)c(-c2c(Br)c(Br)cc(Br)c2Br)c1Br`, 5.5.
As to `CCCCNCc1ccccc1`, the logP was 2.59.
Turning to `COC(=O)CCC(=O)OC`, the solubility is 171 mM (≈ 25000 µg/mL).
Regarding `O=Cc1ccc(F)cc1`, the logP worked out at 1.54.
Still for that read-out and setting: for `Cc1cc(Cl)c(Cc2cc(Cl)ccc2Cl)cc1Cl` the value was 7.48.

The data set is the same for the next values; noted with them: 20 °C.
The compound `CCOS(=O)(=O)OCC` had a solubility of 45.4 mM (≈ 7000 µg/mL). This lies in the millimolar range.
`N#Cc1cccnc1` had a solubility of 1300 mM (≈ 135000 µg/mL).
The same measure, in the same setting: next, `CCc1ccc(C)nc1`: 99 mM (≈ 12000 µg/mL).

Still in this data set, the particulars now being: 23 °C.
Take `CCOc1cc(OP(=S)(OC)OC)nc(CC)n1`: the solubility amounted to 0.137 mM (≈ 40 µg/mL).
The same measure, in the same setting: next, `C[Si]1(C)O[Si](C)(C)O[Si](C)(C)O[Si](C)(C)O[Si](C)(C)O1`: 4.58e-05 mM (≈ 0.017 µg/mL).

Still in this data set, the particulars now being: 25 °C.
In turn, `O=CC=Cc1ccccc1` gave a solubility of 10.7 mM (≈ 1420 µg/mL).
Same read-out and setting: for `ClCc1ccccc1` the value was 4.15 mM (≈ 525 µg/mL).
On the same count and under the same terms, next, `COCC(C)OC(C)=O` (stereo unspecified): 1500 mM (≈ 198000 µg/mL); `CN(C)c1ccc(N=Nc2ccc(N)cc2)cc1`: 0.0255 mM (≈ 6.12 µg/mL).
`CC=CC#N` displayed a solubility of 373 mM (≈ 25000 µg/mL).

The same data set, now with this note: 25.0 °C.
Consider `CCOS(=O)(=O)OCC`, for which the log10 OH rate constant (cm³/molecule/s) was -11.7.
The same measure, in the same setting: next, `COC(=O)C(C)O` (stereo unspecified): -11.6.
In the case of `O=CC(F)(F)Cl`, the log10 OH rate constant (cm³/molecule/s) was -12.1.
`CCOCCOCC` yielded a log10 OH rate constant (cm³/molecule/s) of -10.2.
The compound `C[Si]1(C)O[Si](C)(C)O[Si](C)(C)O[Si](C)(C)O[Si](C)(C)O1` yielded a log10 OH rate constant (cm³/molecule/s) of -11.8.
Compound `COC(=O)CCC(=O)OC` registered a log10 OH rate constant (cm³/molecule/s) of -11.9.
